For eight compounds, mass density and activity coefficient results are on record in the NIST ThermoML archive (doi:10.1016/j.jct.2014.12.027).

For series [1] the following is noted: 101.33 kPa, Liquid, Vibrating tube method.
Series [2] is described as follows: activity coefficient (dimensionless); of the first substance listed, at infinite dilution; xn = mol fraction of the nth substance listed. The following applies: 101 kPa, Liquid, Chromatography, x1 = 0.

Broadly, the mass density is mass per unit of volume.

± gives the expanded uncertainty stated by the source.

On to `CCCC[n+]1ccc(C)cc1.N#CC(=C=[N-])C#N` [1-butyl-4-methylpyridinium tricyanomethanide], for which the mass density in series [1] (293.15 K) was 1037.3 ± 0.9 kg/m3; in series [1] (303.15 K), 1031.7 ± 0.9 kg/m3; in series [1] (313.15 K), 1026.2 ± 0.9 kg/m3; in series [1] (323.15 K), 1020.7 ± 0.9 kg/m3; in series [1] (333.15 K) it was 1015.1 ± 0.9 kg/m3; in series [1] (343.15 K), 1009.6 ± 0.9 kg/m3.

Turning to `CCCO` [propan-1-ol] + CCCC[n+]1ccc(C)cc1.N#CC(=C=[N-])C#N, the activity coefficient in series [2] (318.15 K) worked out at 1.06 ± 0.07; in series [2] (328.15 K), 1.01 ± 0.06; in series [2] (338.15 K), 0.965 ± 0.061; in series [2] (348.15 K), 0.936 ± 0.059; in series [2] (358.15 K), 0.906 ± 0.057; in series [2] (368.15 K), 0.872 ± 0.056.

Consider `CC(C)O` [propan-2-ol] + CCCC[n+]1ccc(C)cc1.N#CC(=C=[N-])C#N, for which the activity coefficient came out at 1.15 ± 0.07 in series [2] (318.15 K); 1.09 ± 0.07 in series [2] (328.15 K); 1.04 ± 0.07 in series [2] (338.15 K); 1 ± 0.06 in series [2] (348.15 K); 0.961 ± 0.06 in series [2] (358.15 K); 0.928 ± 0.059 in series [2] (368.15 K).

As for `c1ccncc1` [pyridine] + CCCC[n+]1ccc(C)cc1.N#CC(=C=[N-])C#N, the activity coefficient is 0.498 ± 0.038 in series [2] (328.15 K); 0.51 ± 0.038 in series [2] (338.15 K); 0.528 ± 0.039 in series [2] (348.15 K); 0.542 ± 0.04 in series [2] (358.15 K); 0.557 ± 0.04 in series [2] (368.15 K).

Consider `C1CCOC1` [tetrahydrofuran] + CCCC[n+]1ccc(C)cc1.N#CC(=C=[N-])C#N, for which the activity coefficient amounted to 0.779 ± 0.051 in series [2] (318.15 K); 0.807 ± 0.052 in series [2] (328.15 K); 0.827 ± 0.053 in series [2] (338.15 K); 0.856 ± 0.055 in series [2] (348.15 K); 0.872 ± 0.056 in series [2] (358.15 K); 0.907 ± 0.058 in series [2] (368.15 K).

On to `c1ccsc1` [thiophene] + CCCC[n+]1ccc(C)cc1.N#CC(=C=[N-])C#N, for which the activity coefficient in series [2] (318.15 K) was determined as 0.636 ± 0.044; in series [2] (328.15 K), 0.658 ± 0.045; in series [2] (338.15 K) it was 0.678 ± 0.046; in series [2] (348.15 K) it was 0.704 ± 0.047; in series [2] (358.15 K) it was 0.733 ± 0.049; in series [2] (368.15 K) it was 0.748 ± 0.049.

For `Cc1ccccc1` [toluene] + CCCC[n+]1ccc(C)cc1.N#CC(=C=[N-])C#N, the activity coefficient in series [2] (318.15 K) is 1.19 ± 0.08; in series [2] (328.15 K), 1.23 ± 0.08; in series [2] (338.15 K), 1.27 ± 0.08; in series [2] (348.15 K), 1.32 ± 0.09; in series [2] (358.15 K), 1.36 ± 0.09; in series [2] (368.15 K), 1.4 ± 0.09.

`O` [water] + CCCC[n+]1ccc(C)cc1.N#CC(=C=[N-])C#N: the activity coefficient in series [2] (318.15 K) is 0.971 ± 0.061; in series [2] (328.15 K) it was 0.926 ± 0.059; in series [2] (338.15 K) it was 0.887 ± 0.056; in series [2] (348.15 K) it was 0.859 ± 0.055; in series [2] (358.15 K), 0.826 ± 0.053; in series [2] (368.15 K), 0.796 ± 0.052.
